Laboratory results reported in patent US20060204443A1, “Methods for tumor treatment using dendrimer conjugates” (The Government of the USA as represented by the Secretary …, priority 2005, published 2006).
“And” between values parts separate entries of the source, which are not always exact repeats. Equal values may be shown once. “Also recorded” adds a separate entry of the source.

Tests used:
[1] = tested on: Draining Lymph Nodes (LNs) from the Normal Breast Tissue; assay: Dynamic micro-MR mammo-lymphangiography after injection into normal mammary gland (Example 1); assay type: in vivo, mice
Experimental: Mice were anesthetized with 1.15 mg sodium pentobarbital (Dainabot, Osaka, Japan), and then injected with 0.15-0.24 μmol Gd/5-8 μL of the PAMAM-G6 contrast agent into normal mammary glands or mammary tissue surrounding a tumor (peritumorally). Dynamic micro-MR images were obtained using a 1.5-Tesla superconductive magnet unit (Signa LX, General Electric Medical System, Milwaukee, Wis.) with a birdcage type coil of 3 cm diameter fixed by a custom made coil holder. Single and double “breast coils” used for imaging breasts in humans are commercially available, for example, from GE Medical Systems (Milwaukee, Wis.) and are routinely available in outpatient MRI centers. The mice were wrapped with gauze to stabilize their body temperature and were placed at the center of the coils.
In order to evaluate the lymphatic drainage from the normal mammary gland of either Balb/c mice (n=5) or athymic nu/nu mice (n=5), 3D-fast spoiled gradient echo (3D-fastSPGR (efgre3d package; Signa Horizon, GE); repetition time/echo time 19.2/7.2 msec; inversion time 47 msec; 31.2 kHz, flip angle 30°, 4 excitations; 36 slice encoding steps; scan time 4 min 49 seconds) with chemical shift fat-suppression was used 6, 12, 18, 24, 30, 36, 42, and 48 min after injection of the contrast agent. The coronal images were reconstructed with 0.6-mm section thickness every 0.3-mm. The field of view was 8×4 cm and the size of the matrix was 512×256. The slice data were processed into 3D images using the maximum intensity projection (MIP) method with the same window and level (window 3500 and level 2100) (Advantage Windows, General Electric Medical System). After imaging, the mice were sacrificed by carbon dioxide inhalation.
Athymic nu/nu mice (n=4) were anesthetized and injected with 0.15 μmol Gd of GPDM into the mammary gland, and images were taken 12, 24, and 36 min after injection. Following these three images, these mice were subsequently injected with 0.15 μmol Gd of PAMAM-G6 contrast agent in the mammary gland, and images were taken at 12 and 24 min post-injection of the PAMAM-G6 contrast agent (at 48 and 60 min post-injection of GPDM).

[2] = tested on: axillary lymph nodes and their lymphatic vessels; assay: Dynamic 3D-MR lymphangiography, effect of contrast agent size (Example 4); assay type: in vivo, athymic nu/nu mice; conditions: for Signal intensity within the axillary lymph node (enhancement ratio, lymph node / adjacent muscle): 0.15 μmolGd/5 μL
Experimental: Mice were anesthetized with 1.15 mg sodium pentobarbital (Dainabot, Osaka, Japan) by intraperitoneal injection. Then 0.15 μmolGd/5 μL of all nano-size contrast agents or 0.45 μmolGd/5 μL of Gd-[DTPA]-dimeglumine were injected into normal mammary glands or mammary tissue surrounding a tumor. Dynamic MR images were obtained using a 1.5-Tesla superconductive magnet unit (Signa LX, General Electric Medical System, Milwaukee, Wis.) with a birdcage type coil of 3 cm diameter fixed by a custom-made coil holder. The mice were wrapped with gauze to conserve their body temperature and were placed at the center of the coils.
In order to evaluate the effect of contrast agent molecular size on the ability to visualize the lymphatics and lymph nodes of athymic nu/nu mice, thirty five non-tumor bearing nu/nu mice were divided into seven groups (n=5). The mice were evaluated with 3D-fast spoiled gradient echo (3D-fastSPGR (efgre3d package; Signa Horizon, GE); repetition time/echo time 19.2/7.2 msec; inversion time 47 msec; bandwidth 31.2 kHz, flip angle 30°, 4 excitations; 36 slice encoding steps; scan time 4 minutes 49 seconds) with chemical shift fat-suppression at 6, 12, 18, 24, 30, and 36 minutes post-injection of each contrast agent. The coronal images were reconstructed with 0.6-mm section thickness every 0.3-mm. The field of view was 8×4 cm and the size of the matrix was 512×256. The slice data were processed into 3D images using the maximum intensity projection (MIP) method with the same window and level (window 3500 and level 2100) (Advantage Windows, General Electric Medical System). The enhancement ratio was calculated by taking the average signal intensity in the axillary lymph node and dividing it by the signal intensity in the adjacent muscle.

[3] = Serum phantoms: T1-weighted MRI signal intensity vs G6 agent concentration; assay type: physicochemical; conditions: FIG. 21B
Text: In order to verify the correlation between T1-weighted MRI signal intensity and concentration of G6 agent, serum phantoms were made containing various concentrations of the G6 agent with a bovine serum (GIBCO, Invitrogen Co., Carlsbad, Calif.) and MR images were obtained with the same imaging technique as shown above. Three sets of phantoms, high ([…]-40 mMGd), intermediate (0.1-1 mMGd) and low (0.01-0.1 mMGd) concentrations, were studied. A sample of Gd-DTPA was used as an internal control.

PAMAM-G6D-(Gd-1B4M)256 dendrimer conjugate
Visualized LNs/Total Examined LNs, Axillary LN ([1]; 6 min after injection): visualized at the initial (6 min) time point in all 10 mice and 10/10 | Visualized LNs/Total Examined LNs, Lateral thoracic LN ([1]; 6 min after injection): 0/10 | Visualized LNs/Total Examined LNs, Superficial cervical LN ([1]; 6 min after injection): 1/10 | Visualized LNs/Total Examined LNs, Axillary LN ([1]; 12 min after injection): 10/10 | Visualized LNs/Total Examined LNs, Lateral thoracic LN ([1]; 12 min after injection): 1/10 | Visualized LNs/Total Examined LNs, Superficial cervical LN ([1]; 12 min after injection): 1/10 | Visualized LNs/Total Examined LNs, Axillary LN ([1]; 18 min after injection): 10/10 | Visualized LNs/Total Examined LNs, Lateral thoracic LN ([1]; 18 min after injection): 2/10 | Visualized LNs/Total Examined LNs, Superficial cervical LN ([1]; 18 min after injection): 1/10 | Visualized LNs/Total Examined LNs, Axillary LN ([1]; 24 min after injection): 10/10 | Visualized LNs/Total Examined LNs, Lateral thoracic LN ([1]; 24 min after injection): 4/10 | Visualized LNs/Total Examined LNs, Superficial cervical LN ([1]; 24 min after injection): 2/10 | Visualized LNs/Total Examined LNs, Axillary LN ([1]; 30 min after injection): 10/10 | Visualized LNs/Total Examined LNs, Lateral thoracic LN ([1]; 30 min after injection): 4/10 | Visualized LNs/Total Examined LNs, Superficial cervical LN ([1]; 30 min after injection): 2/10 | Visualized LNs/Total Examined LNs, Axillary LN ([1]; 36 min after injection): 10/10 | Visualized LNs/Total Examined LNs, Lateral thoracic LN ([1]; 36 min after injection): 5/10 | Visualized LNs/Total Examined LNs, Superficial cervical LN ([1]; 36 min after injection): 3/10 | Visualized LNs/Total Examined LNs, Axillary LN ([1]; 42 min after injection): 10/10 | Visualized LNs/Total Examined LNs, Lateral thoracic LN ([1]; 42 min after injection): 6/10 | Visualized LNs/Total Examined LNs, Superficial cervical LN ([1]; 42 min after injection): 3/10 | Visualized LNs/Total Examined LNs, Axillary LN ([1]; 48 min after injection): 10/10 | Visualized LNs/Total Examined LNs, Lateral thoracic LN ([1]; 48 min after injection): 6/10 | Visualized LNs/Total Examined LNs, Superficial cervical LN ([1]; 48 min after injection): 3/10 | Visualization of draining lymph nodes and lymphatic vessels (FIG. 5) ([1]; athymic nu/nu mice, 0.15 μmol Gd into the mammary gland, GPDM imaged at 12, 24, 36 min, then PAMAM-G6): clearly visualized | Visualization of axillary lymph nodes and their lymphatic vessels ([2]; 6-36 minutes post-injection into mammary gland, listed as G6): earliest and most intense opacification of the sentinel lymph nodes; also recorded: visualized at all time points in all 10 mice | Signal intensity within the axillary lymph node (enhancement ratio, lymph node / adjacent muscle) ([2]; 6 minutes post-injection): 2.6±0.2 | Signal intensity within the axillary lymph node (enhancement ratio, lymph node / adjacent muscle) ([2]; 12 minutes post-injection): 2.9±0.3 | T1 relaxivity [3]: much higher T1 relaxivity than Gd-DTPA
